Reference: publication PMC3445516 (PLoS ONE, 2012)
Like-named read-outs stand apart in the source and are kept apart here.

What was measured:
Assay in all cases: Ambit kinase profiling, competition binding
EPHA3 = target: T1, EPHA3 (Homo sapiens, UniProt P29320)
T1 construct: purchased Ambit Biosciences (KINOMEscan)
T1 sequence (P29320 21-983): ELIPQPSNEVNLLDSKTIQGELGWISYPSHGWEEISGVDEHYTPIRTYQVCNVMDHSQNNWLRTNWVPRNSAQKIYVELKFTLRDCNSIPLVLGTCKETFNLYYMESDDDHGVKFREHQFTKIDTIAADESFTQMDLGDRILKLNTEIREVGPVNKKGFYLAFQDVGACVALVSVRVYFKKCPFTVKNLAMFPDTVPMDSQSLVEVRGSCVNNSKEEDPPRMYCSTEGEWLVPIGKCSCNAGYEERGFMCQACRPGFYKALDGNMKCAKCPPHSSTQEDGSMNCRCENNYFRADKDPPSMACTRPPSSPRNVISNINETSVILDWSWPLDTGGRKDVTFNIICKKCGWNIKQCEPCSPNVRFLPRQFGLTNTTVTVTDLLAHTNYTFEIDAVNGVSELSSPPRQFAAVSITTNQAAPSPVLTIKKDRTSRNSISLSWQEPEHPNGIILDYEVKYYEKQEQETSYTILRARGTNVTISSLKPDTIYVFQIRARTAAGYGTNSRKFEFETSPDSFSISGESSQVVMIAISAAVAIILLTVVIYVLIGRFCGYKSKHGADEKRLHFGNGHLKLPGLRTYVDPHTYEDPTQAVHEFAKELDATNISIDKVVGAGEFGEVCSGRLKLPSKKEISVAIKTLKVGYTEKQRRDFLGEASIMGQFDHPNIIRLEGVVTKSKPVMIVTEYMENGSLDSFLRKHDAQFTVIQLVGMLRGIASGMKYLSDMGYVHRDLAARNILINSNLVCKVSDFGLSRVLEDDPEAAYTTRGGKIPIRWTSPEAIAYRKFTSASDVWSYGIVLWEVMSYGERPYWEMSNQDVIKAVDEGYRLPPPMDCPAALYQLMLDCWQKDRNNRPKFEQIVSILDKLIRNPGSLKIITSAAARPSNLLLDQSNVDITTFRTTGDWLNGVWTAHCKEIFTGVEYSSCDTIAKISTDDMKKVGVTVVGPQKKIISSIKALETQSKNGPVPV
Method: (§1) Also included in the kinase profile are four isoforms of PKC (δ, ε, η, θ) and eight isoforms of CAMKs (CAMKIα, δ, γ; CAMKIIα, β, δ, γ; CAMK4).
(§2) The global kinase profiling experiment was performed by Ambit Biosciences.

EGFR(L861Q) = target: T2, EGFR(L861Q) (Homo sapiens, UniProt P00533, L861Q); details: for % Competition: 10 µM
T2 construct: purchased Ambit Biosciences (KINOMEscan)
Method: as §1, §2

EPHA8 = target: T3, EPHA8 (Homo sapiens, UniProt P29322)
T3 construct: purchased Ambit Biosciences (KINOMEscan)
T3 sequence (P29322 28-1005): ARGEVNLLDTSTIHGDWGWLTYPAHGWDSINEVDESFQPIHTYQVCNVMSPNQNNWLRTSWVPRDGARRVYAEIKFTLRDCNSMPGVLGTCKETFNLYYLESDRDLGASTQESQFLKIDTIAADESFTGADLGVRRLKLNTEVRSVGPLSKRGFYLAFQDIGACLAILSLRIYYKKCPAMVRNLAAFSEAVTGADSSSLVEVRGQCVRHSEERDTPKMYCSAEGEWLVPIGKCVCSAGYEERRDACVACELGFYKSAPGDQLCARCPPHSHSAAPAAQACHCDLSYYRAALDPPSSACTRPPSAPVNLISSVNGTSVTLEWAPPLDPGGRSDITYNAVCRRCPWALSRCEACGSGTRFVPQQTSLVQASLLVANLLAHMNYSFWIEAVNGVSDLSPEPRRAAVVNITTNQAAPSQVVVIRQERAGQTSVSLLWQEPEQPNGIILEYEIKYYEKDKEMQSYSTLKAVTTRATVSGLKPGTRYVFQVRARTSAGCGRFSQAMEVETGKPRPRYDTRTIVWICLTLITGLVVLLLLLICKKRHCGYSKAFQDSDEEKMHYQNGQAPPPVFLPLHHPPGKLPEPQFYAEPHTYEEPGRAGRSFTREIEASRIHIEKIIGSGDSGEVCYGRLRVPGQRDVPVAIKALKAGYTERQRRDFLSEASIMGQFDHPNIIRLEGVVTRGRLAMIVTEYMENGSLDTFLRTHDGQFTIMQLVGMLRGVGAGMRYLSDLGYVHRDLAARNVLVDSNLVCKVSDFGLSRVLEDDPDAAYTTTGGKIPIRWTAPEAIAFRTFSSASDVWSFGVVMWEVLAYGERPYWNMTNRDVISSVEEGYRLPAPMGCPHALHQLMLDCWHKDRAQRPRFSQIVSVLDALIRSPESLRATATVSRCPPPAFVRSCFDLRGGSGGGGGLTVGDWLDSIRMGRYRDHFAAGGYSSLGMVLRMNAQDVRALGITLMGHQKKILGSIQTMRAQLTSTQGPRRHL
Method: as §1, §2

p38-gamma = target: T4, p38-gamma (Homo sapiens, UniProt P53778)
T4 construct: purchased Ambit Biosciences (KINOMEscan)
T4 sequence (P53778 1-367): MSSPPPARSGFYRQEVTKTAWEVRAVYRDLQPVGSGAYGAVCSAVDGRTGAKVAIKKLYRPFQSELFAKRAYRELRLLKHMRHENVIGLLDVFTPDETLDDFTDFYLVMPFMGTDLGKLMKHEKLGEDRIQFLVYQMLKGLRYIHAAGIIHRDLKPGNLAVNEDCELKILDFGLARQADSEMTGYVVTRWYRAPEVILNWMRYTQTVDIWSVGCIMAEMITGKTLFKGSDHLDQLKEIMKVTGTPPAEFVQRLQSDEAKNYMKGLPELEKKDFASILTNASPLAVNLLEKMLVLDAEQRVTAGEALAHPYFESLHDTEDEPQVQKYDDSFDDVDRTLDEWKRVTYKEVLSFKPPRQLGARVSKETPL
Method: as §1, §2

ERK1 = target: T5, ERK1 (Homo sapiens, UniProt P27361)
T5 construct: purchased Ambit Biosciences (KINOMEscan)
Method: as §1, §2

YES = target: T6, YES (Homo sapiens, UniProt P07947)
T6 construct: purchased Ambit Biosciences (KINOMEscan)
Method: as §1, §2

T6 sequence (P07947 whole entry): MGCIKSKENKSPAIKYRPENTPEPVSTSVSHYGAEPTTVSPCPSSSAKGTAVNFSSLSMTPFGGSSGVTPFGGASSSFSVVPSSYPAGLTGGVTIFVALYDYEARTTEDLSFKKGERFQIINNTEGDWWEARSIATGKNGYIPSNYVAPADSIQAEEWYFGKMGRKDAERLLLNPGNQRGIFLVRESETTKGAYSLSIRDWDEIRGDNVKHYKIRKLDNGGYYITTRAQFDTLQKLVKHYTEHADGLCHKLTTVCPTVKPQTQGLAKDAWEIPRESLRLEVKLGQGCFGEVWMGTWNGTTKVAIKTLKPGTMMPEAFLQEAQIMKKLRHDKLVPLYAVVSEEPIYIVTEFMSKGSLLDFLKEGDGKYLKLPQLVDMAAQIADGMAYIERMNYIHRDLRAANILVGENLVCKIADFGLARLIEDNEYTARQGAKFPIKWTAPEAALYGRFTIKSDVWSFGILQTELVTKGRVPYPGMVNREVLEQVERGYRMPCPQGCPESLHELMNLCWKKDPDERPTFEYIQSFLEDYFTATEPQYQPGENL
T5 sequence (P27361 whole entry): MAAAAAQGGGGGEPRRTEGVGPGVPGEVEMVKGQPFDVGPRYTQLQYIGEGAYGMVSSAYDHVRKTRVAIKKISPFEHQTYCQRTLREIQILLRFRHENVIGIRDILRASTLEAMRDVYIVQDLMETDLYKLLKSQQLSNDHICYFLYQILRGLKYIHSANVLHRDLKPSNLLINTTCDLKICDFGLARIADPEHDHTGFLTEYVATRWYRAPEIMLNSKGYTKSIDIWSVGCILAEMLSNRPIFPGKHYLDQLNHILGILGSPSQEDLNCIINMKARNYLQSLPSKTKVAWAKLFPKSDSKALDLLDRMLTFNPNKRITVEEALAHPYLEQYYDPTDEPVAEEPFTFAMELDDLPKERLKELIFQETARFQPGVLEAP

inhibition at 10 µM (EPHA3; EPHA3, 10 µM, read-out: % Competition)	inhibition at 10 µM (EPHA8; EPHA8, 10 µM, read-out: % Competition)	inhibition at 10 µM (p38-gamma; 10 µM, read-out: % Competition)	inhibition at 10 µM (ERK1; ERK1, 10 µM, read-out: % Competition)	inhibition at 10 µM (YES; YES, 10 µM, read-out: % Competition)	inhibition at 10 µM (EPHA3; EPHA3, compound concentration 10 uM, read-out: Percent Competition)	Percent Competition (EGFR(L861Q); compound concentration 10 uM)	inhibition at 10 µM (EPHA8; EPHA8, compound concentration 10 uM, read-out: Percent Competition)	inhibition at 10 µM (p38-gamma; compound concentration 10 uM, read-out: Percent Competition)	inhibition at 10 µM (ERK1; ERK1, compound concentration 10 uM, read-out: Percent Competition)	inhibition at 10 µM (YES; YES, compound concentration 10 uM, read-out: Percent Competition)	SMILES	% Competition (EGFR(L861Q))	inhibition at 10 µM (EPHA3; read-out: % Competition)	inhibition at 10 µM (EPHA8; read-out: % Competition)	% Competition (p38-gamma; 10 µM)	inhibition at 10 µM (ERK1; read-out: % Competition)	inhibition at 10 µM (YES; read-out: % Competition)
85%	71%	90%	80%	73%	–	–	–	–	–	–	Fc1ccc(-c2c(-c3ccncc3)[nH]c3nccnc23)cc1 [Compound 122]	97%	–	–	–	–	–
–	–	–	–	–	–	–	–	–	–	–	CC(O)CNc1cc(-c2[nH]c3cccnc3c2-c2ccc(F)cc2)ccn1 (stereo not drawn) [Compound 140]	87%	< 50%	< 50%	<50%	< 50%	< 50%
–	–	–	–	–	85%	97%	71%	90%	80%	73%	Fc1ccc(-c2c(-c3ccncc3)[nH]c3nccnc23)cc1 [RO1155697-000-005]	–	–	–	–	–	–
